These results are taken from PubChem BioAssay (NCI).

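Following 48 hours of exposure in 96-well plates, responses at five concentrations were used to interpolate endpoints linearly. TGI marks complete inhibition of growth.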 Where only a bound is given, the exact number is not on record here.

Holding throughout (assay): NCI tumour cell line growth inhibition, 48 h
Assay [1] relates to TK-10 renal.
Assay [2] has as its system HCT-15 colon.
Assay [3] has as its system NCI-H23 lung.
The subject of assay [4] is MOLT-4 leukemia.
The test system of assay [5] is SK-OV-3 ovarian.
The test system of assay [6] is CAKI-1 renal.
For assay [7], the system named is SNB-19 CNS.
The subject of assay [8] is A549 NSCLC.
Assay [9] deals with SF-295 CNS.
Assay [10] concerns UO-31 renal.
In assay [11] the test system is EKVX NSCLC.
For assay [12], the system named is LOX IMVI melanoma.
Assay [13] has as its system SF-539 CNS.
Assay [14] has as its system KM12 colon.
Assay [15] has as its system OVCAR-3 ovarian.
In assay [16] the test system is OVCAR-8 ovarian.
Assay [17] deals with HCC-2998 colon.
Assay [18] concerns OVCAR-4 ovarian.
Assay [19] has as its system PC-3 prostate.

For the compound `N#CC(C#N)=Cc1ccc(Oc2ccccc2)cc1`, the TGI was greater than 100 µM in assay [1]; greater than 100 µM in [2]; 52.2 µM in [3]; 98.4 µM in assay [4]; greater than 100 µM in [5]; greater than 100 µM in assay [6]. Further, the TGI in assay [7] is greater than 100 µM; in [8] it was greater than 100 µM; in assay [9] it was 59.2 µM; in [10], greater than 71.4 µM; in assay [11], greater than 100 µM; in assay [12], 30.8 µM. Further, the TGI in [13] is 40.4 µM; in assay [14], greater than 100 µM; in assay [15] it was greater than 100 µM; in assay [16] it was 73.7 µM; in assay [17], greater than 100 µM.
`COc1ccc(C(=O)C(CC2C(=O)CC(C)(C)C(C(=O)C(=O)Nc3c(C)cccc3C)C2=O)c2ccc(OC)cc2)cc1` (stereo unspecified): the TGI in assay [18], in [1], in [2], in [3], in assay [4] and in [5] was greater than 100 µM throughout. The TGI in assay [6], in [7], in [8], in [9], in assay [10] and in [11] was greater than 100 µM each time. Further, the TGI in [12], in assay [13], in [14], in assay [15], in assay [16] and in assay [19] was greater than 100 µM in each case. In [17], this compound displayed a TGI greater than 100 µM.
On to `CCOC(=O)/C(=C/c1ccc(Cl)cc1)N(CC)CC`, for which the TGI in [18], in assay [1], in assay [2], in assay [3], in assay [4] and in [5] was greater than 100 µM each time. For the same compound, the TGI in assay [6], in assay [8], in assay [9], in assay [10], in assay [11] and in [12] was greater than 100 µM throughout. Moreover, the TGI in assay [13], in [14], in assay [16] and in assay [17] was greater than 100 µM in each case.
`ClCCCC1COc2ccccc2O1` (stereo unspecified): the TGI in assay [18], in [1], in [2], in assay [4], in assay [5] and in assay [6] was greater than 100 µM in each case. The TGI in assay [7], in assay [8], in [9], in assay [10], in assay [11] and in [13] was greater than 100 µM each time. Further, the TGI in assay [15], in assay [16], in [19] and in assay [17] was greater than 100 µM each time.
Take `CCC(C)C(NC(=O)c1c2ccccc2nc2ccccc12)C(=O)O` (stereo unspecified): the TGI in [18], in assay [1], in [2], in [3], in assay [4] and in assay [5] was greater than 100 µM throughout. The TGI in assay [6], in assay [7], in assay [8], in assay [9], in assay [10] and in assay [11] was greater than 100 µM each time. The TGI in [12], in assay [13], in [14], in assay [15], in assay [16] and in assay [19] was greater than 100 µM each time. This compound also showed a TGI in assay [17] greater than 100 µM.
`N#Cc1nc(C2SCCCS2)oc1N`: the TGI in [18], in assay [1], in [2], in [4], in assay [5] and in [6] was greater than 100 µM each time. Besides, the TGI in assay [7], in assay [8], in [11], in [12], in assay [14] and in assay [16] was greater than 100 µM each time. This compound registered a TGI in assay [19] greater than 100 µM.
Take `COc1cccc(N2C(=O)[C@H]3[C@H]4CC(C(C)(C)C)CC[C@H]4c4c([nH]c5ccccc45)[C@H]3C2=O)c1` (stereo partly specified): the TGI was 28.8 µM in assay [1]; greater than 100 µM in assay [2]; 40.9 µM in assay [3]; 25.1 µM in [4]; 35.3 µM in [5]; 32.3 µM in assay [6]. In addition, the TGI turned out to be 33.9 µM in assay [7]; 29 µM in assay [8]; 29.2 µM in [9]; 35.5 µM in [10]; 40.6 µM in assay [11]; 32.7 µM in [12]. Further, the TGI in assay [13] was 42.1 µM; in [14], greater than 100 µM; in assay [15], 36.2 µM; in [16], 29.7 µM; in assay [17] it was greater than 100 µM.
For the compound `O=c1nc(-c2ccccc2)scc1-c1ccccc1`, the TGI in assay [18], in assay [1], in assay [2], in assay [3], in assay [4] and in assay [5] was greater than 100 µM each time. Besides, the TGI in assay [6], in assay [7], in assay [8], in assay [9], in assay [10] and in [11] was greater than 100 µM each time. Further, the TGI in [13], in assay [14], in [15] and in assay [16] was greater than 100 µM throughout.
As to `COC(=O)C(C(=O)C(=O)Nc1ccc([N+](=O)[O-])cc1)c1nc2cc(C)c(C)cc2[nH]c1=O` (stereo unspecified), the TGI in assay [18], in [1], in [2], in assay [3], in assay [4] and in [5] was greater than 100 µM throughout. Moreover, the TGI in assay [6], in [7], in assay [8], in [9], in [10] and in [11] was greater than 100 µM each time. In addition, the TGI in [12], in assay [13], in [14], in [15] and in assay [17] was greater than 100 µM throughout.
On to `Nc1ccc(-c2nc3ccc(Cc4ccc5nc(-c6ccc(N)cc6)oc5c4)cc3o2)cc1`, for which the TGI in [18], in assay [1], in assay [2], in assay [3], in assay [4] and in assay [5] was greater than 100 µM throughout. Moreover, the TGI in [6], in assay [7], in [8], in [9], in [10] and in assay [12] was greater than 100 µM throughout. Moreover, the TGI in [13], in assay [14], in assay [16], in assay [19] and in assay [17] was greater than 100 µM throughout.
As for `CC(=O)O[C@]12CCCCC1C1(O)C(O)CCCC[C@H]12` (stereo partly specified), the TGI in assay [18], in assay [1], in assay [2], in [3], in assay [4] and in assay [5] was greater than 100 µM in each case. Further, the TGI in assay [7], in assay [8], in assay [9], in [10], in [11] and in assay [12] was greater than 100 µM in each case. Further, the TGI in [14] and in [16] was greater than 100 µM throughout.
Consider `CCOc1ccc(N=Nc2c(-c3ccccc3)nn(C(=O)CC(=O)Nc3cccc(C)c3)c2-c2ccccc2)cc1`, for which the TGI in assay [18], in assay [1], in assay [3], in assay [4], in [5] and in [6] was greater than 100 µM in each case. Further, the TGI in assay [7], in assay [8], in [9], in [10], in assay [11] and in assay [12] was greater than 100 µM in each case. Further, the TGI in [13], in assay [14], in assay [15], in [16] and in assay [17] was greater than 100 µM each time.
For the compound `COC(=O)C1CCC[C@H]2C(CO)=C(C)C(=O)[C@@H]12` (stereo partly specified), the TGI in [18], in assay [1], in assay [2], in assay [3], in assay [4] and in assay [5] was greater than 100 µM in each case. The TGI in [6], in [7], in [8], in assay [9], in assay [10] and in assay [11] was greater than 100 µM throughout. In addition, the TGI in assay [13], in [14], in assay [16] and in [17] was greater than 100 µM throughout.
For `Cc1cn(C2CC(N=[N+]=[N-])C(C(=O)O)O2)c(=O)[nH]c1=O` (stereo unspecified), the TGI in [18], in assay [1], in [2], in assay [3], in assay [4] and in assay [5] was greater than 100 µM each time. Besides, the TGI in assay [6], in [7], in assay [8], in assay [10], in assay [11] and in assay [13] was greater than 100 µM throughout. In addition, the TGI in [14], in assay [15], in assay [16], in assay [19] and in [17] was greater than 100 µM each time.
Take `Cc1cccc2c(N)c3cccc(C(=O)NCCN4CCOCC4)c3nc12`: the TGI turned out to be 6.69 µM in assay [18]; 18.6 µM in [1]; 6.39 µM in assay [2]; 2.17 µM in assay [3]; 1.71 µM in assay [4]; 16.9 µM in assay [5]. Besides, the TGI in assay [6] was found to be 17.3 µM; in [7], 3.12 µM; in [8], 7.92 µM; in [9] it was 10.9 µM; in assay [10], 8.26 µM; in assay [11] it was 5.66 µM. Also, the TGI is 4.28 µM in assay [12]; greater than 100 µM in assay [13]; 5 µM in assay [14]; 16.9 µM in [15]; 7.19 µM in [19]; greater than 100 µM in [17].
Consider `CN/N=C(/CC(=O)c1sc(-n2nc(-c3ccccc3)cc2-c2ccccc2)nc1C)C(=O)Nc1ccc(Cl)c(Cl)c1`, for which the TGI in assay [18], in assay [2], in assay [3], in assay [4], in assay [5] and in [6] was greater than 100 µM throughout. The TGI was greater than 100 µM in assay [7]; greater than 100 µM in assay [8]; greater than 100 µM in assay [9]; greater than 100 µM in assay [10]; 17.7 µM in assay [11]; greater than 100 µM in assay [12]. In addition, the TGI in assay [13], in assay [14], in assay [15], in assay [16] and in [17] was greater than 100 µM throughout.
